Data published in PubChem BioAssay AID1259407 (Chemical Carcinogenesis Research Information System (CCRIS), 2018).
Active and inactive are the calls of the source. No rule for the calls is given here.

Test system: CCRIS mutagenicity, Ames/micronucleus/aberration tests
Assay: CCRIS mutagenicity studies
Excerpt: The CCRIS database contains chemical records with carcinogenicity, mutagenicity, tumor promotion, and tumor inhibition test results. It was developed by the National Cancer Institute (NCI). Data are derived from studies cited in primary journals, current awareness tools, NCI reports, and other sources. Test results have been reviewed by experts in carcinogenesis and mutagenesis.
CCRIS provides historical information from the years 1985 - 2011. It is no longer updated.
This is an archive assay for CCRIS mutagenicity studies.

[1] = Test System: AMES SALMONELLA TYPHIMURIUM, Strain/Indicator: TA98, Metabolic Activation: NONE, Method: PREINCUBATION
[2] = Test System: AMES SALMONELLA TYPHIMURIUM, Strain/Indicator: TA100, Metabolic Activation: NONE, Method: PREINCUBATION
[3] = Test System: AMES SALMONELLA TYPHIMURIUM, Strain/Indicator: TA100, Metabolic Activation: RAT, LIVER, S-9, AROCLOR 1254, Method: PREINCUBATION
[4] = Test System: AMES SALMONELLA TYPHIMURIUM, Strain/Indicator: TA1535, Metabolic Activation: NONE, Method: PREINCUBATION
[5] = Test System: MOUSE LYMPHOMA, Strain/Indicator: L5178Y (TK+/TK-), Metabolic Activation: RAT, LIVER, S-9, AROCLOR 1254, Method: SUSPENSION/PLATE

**Q.** `Cc1cc(=O)oc2cc(O)cc(O)c12` was tested. Which mutagenic call (Test System: AMES SALMONELLA TYPHIMURIUM, Strain/Indicator: TA98, Metabolic Activation: HAMSTER, LIVER, S-9, AROCLOR 1254, Method: PREINCUBATION) did it give?
**A.** The mutagenic call was “inactive; negative”.

**Q.** What about the mutagenic call [1] of the same compound?
**A.** Its mutagenic call is “inactive; negative”.

**Q.** What about the mutagenic call (Test System: AMES SALMONELLA TYPHIMURIUM, Strain/Indicator: TA98, Metabolic Activation: RAT, LIVER, S-9, AROCLOR 1254, Method: PREINCUBATION) of the same compound?
**A.** The mutagenic call was “inactive; negative”.

**Q.** And the mutagenic call (Test System: AMES SALMONELLA TYPHIMURIUM, Strain/Indicator: TA100, Metabolic Activation: HAMSTER, LIVER, S-9, AROCLOR 1254, Method: PREINCUBATION)?
**A.** Its mutagenic call is “inactive; negative”.

**Q.** And the mutagenic call [2]?
**A.** The mutagenic call was “inactive; negative”.

**Q.** And the mutagenic call [3]?
**A.** The mutagenic call was “inactive; negative”.

**Q.** And the mutagenic call (Test System: AMES SALMONELLA TYPHIMURIUM, Strain/Indicator: TA1535, Metabolic Activation: HAMSTER, LIVER, S-9, AROCLOR 1254, Method: PREINCUBATION)?
**A.** Its mutagenic call is “inactive; negative”.

**Q.** What about the mutagenic call [4] of the same compound?
**A.** Its mutagenic call is “inactive; negative”.

**Q.** And the mutagenic call (Test System: AMES SALMONELLA TYPHIMURIUM, Strain/Indicator: TA1535, Metabolic Activation: RAT, LIVER, S-9, AROCLOR 1254, Method: PREINCUBATION)?
**A.** The mutagenic call was “inactive; negative”.

**Q.** What about the mutagenic call (Test System: AMES SALMONELLA TYPHIMURIUM, Strain/Indicator: TA1537, Metabolic Activation: HAMSTER, LIVER, S-9, AROCLOR 1254, Method: PREINCUBATION) of the same compound?
**A.** The mutagenic call was “inactive; negative”.

**Q.** And the mutagenic call (Test System: AMES SALMONELLA TYPHIMURIUM, Strain/Indicator: TA1537, Metabolic Activation: NONE, Method: PREINCUBATION)?
**A.** Its mutagenic call is “inactive; negative”.

**Q.** And the mutagenic call (Test System: AMES SALMONELLA TYPHIMURIUM, Strain/Indicator: TA1537, Metabolic Activation: RAT, LIVER, S-9, AROCLOR 1254, Method: PREINCUBATION)?
**A.** The mutagenic call was “inactive; negative”.

**Q.** `Cc1c(O)c(=O)ccn1C` was tested. Which mutagenic call (Test System: MOUSE LYMPHOMA, Strain/Indicator: L5178Y (TK+/TK-), Metabolic Activation: NONE, Method: SUSPENSION/PLATE) did it give?
**A.** The mutagenic call was “active; positive. reevaluation of results: positive”.

**Q.** What about the mutagenic call [5] of the same compound?
**A.** Its mutagenic call is “active; positive. reevaluation of results: equivocal”.

**Q.** `CCC(=O)OCc1ccccc1[N+](=O)[O-]` was tested. Which mutagenic call [1] did it give?
**A.** The mutagenic call was “inactive; negative”.

**Q.** What about the mutagenic call [2] of the same compound?
**A.** Its mutagenic call is “inactive; negative”.

**Q.** And the mutagenic call [3]?
**A.** Its mutagenic call is “inactive; negative”.

**Q.** What does the source list for `Cc1cc(-c2cc(C)c(N)c(C)c2)cc(C)c1N`?
**A.** mutagenic call (Test System: AMES SALMONELLA TYPHIMURIUM, Strain/Indicator: TA97, Metabolic Activation: HAMSTER, LIVER, S-9, AROCLOR 1254 (10%), Method: PREINCUBATION): inactive; negative; mutagenic call (Test System: AMES SALMONELLA TYPHIMURIUM, Strain/Indicator: TA97, Metabolic Activation: HAMSTER, LIVER, S-9, AROCLOR 1254 (30%), Method: PREINCUBATION): inactive; negative; mutagenic call (Test System: AMES SALMONELLA TYPHIMURIUM, Strain/Indicator: TA97, Metabolic Activation: NONE, Method: PREINCUBATION): inactive; negative; mutagenic call (Test System: AMES SALMONELLA TYPHIMURIUM, Strain/Indicator: TA97, Metabolic Activation: RAT, LIVER, S-9, AROCLOR 1254 (10%), Method: PREINCUBATION): inactive; negative; mutagenic call (Test System: AMES SALMONELLA TYPHIMURIUM, Strain/Indicator: TA97, Metabolic Activation: RAT, LIVER, S-9, AROCLOR 1254 (30%), Method: PREINCUBATION): inactive; negative; mutagenic call (Test System: AMES SALMONELLA TYPHIMURIUM, Strain/Indicator: TA98, Metabolic Activation: HAMSTER, LIVER, S-9, AROCLOR 1254 (10%), Method: PREINCUBATION): inactive; negative; mutagenic call (Test System: AMES SALMONELLA TYPHIMURIUM, Strain/Indicator: TA98, Metabolic Activation: HAMSTER, LIVER, S-9, AROCLOR 1254 (30%), Method: PREINCUBATION): inactive; negative; mutagenic call [1]: inactive; negative; mutagenic call (Test System: AMES SALMONELLA TYPHIMURIUM, Strain/Indicator: TA98, Metabolic Activation: RAT LIVER S-9, AROCLOR 1254, Method: PREINCUBATION): inactive; negative; mutagenic call (Test System: AMES SALMONELLA TYPHIMURIUM, Strain/Indicator: TA98, Metabolic Activation: RAT, LIVER, S-9, AROCLOR 1254 (10%), Method: PREINCUBATION): inactive; negative; mutagenic call (Test System: AMES SALMONELLA TYPHIMURIUM, Strain/Indicator: TA98, Metabolic Activation: RAT, LIVER, S-9, AROCLOR 1254 (30%), Method: PREINCUBATION): inactive; negative; mutagenic call (Test System: AMES SALMONELLA TYPHIMURIUM, Strain/Indicator: TA100, Metabolic Activation: HAMSTER, LIVER, S-9, AROCLOR 1254 (10%), Method: PREINCUBATION): inactive; negative; mutagenic call (Test System: AMES SALMONELLA TYPHIMURIUM, Strain/Indicator: TA100, Metabolic Activation: HAMSTER, LIVER, S-9, AROCLOR 1254 (30%), Method: PREINCUBATION): inactive; negative; mutagenic call [2]: inactive; negative; mutagenic call (Test System: AMES SALMONELLA TYPHIMURIUM, Strain/Indicator: TA100, Metabolic Activation: RAT LIVER S-9, AROCLOR 1254, Method: PREINCUBATION): inactive; negative; mutagenic call (Test System: AMES SALMONELLA TYPHIMURIUM, Strain/Indicator: TA100, Metabolic Activation: RAT, LIVER, S-9, AROCLOR 1254 (10%), Method: PREINCUBATION): inactive; negative; mutagenic call (Test System: AMES SALMONELLA TYPHIMURIUM, Strain/Indicator: TA100, Metabolic Activation: RAT, LIVER, S-9, AROCLOR 1254 (30%), Method: PREINCUBATION): inactive; negative; mutagenic call (Test System: AMES SALMONELLA TYPHIMURIUM, Strain/Indicator: TA1535, Metabolic Activation: HAMSTER, LIVER, S-9, AROCLOR 1254 (10%), Method: PREINCUBATION): inactive; negative; mutagenic call (Test System: AMES SALMONELLA TYPHIMURIUM, Strain/Indicator: TA1535, Metabolic Activation: HAMSTER, LIVER, S-9, AROCLOR 1254 (30%), Method: PREINCUBATION): inactive; negative; mutagenic call [4]: inactive; negative; mutagenic call (Test System: AMES SALMONELLA TYPHIMURIUM, Strain/Indicator: TA1535, Metabolic Activation: RAT, LIVER, S-9, AROCLOR 1254 (10%), Method: PREINCUBATION): inactive; negative; mutagenic call (Test System: AMES SALMONELLA TYPHIMURIUM, Strain/Indicator: TA1535, Metabolic Activation: RAT, LIVER, S-9, AROCLOR 1254 (30%), Method: PREINCUBATION): inactive; negative; mutagenic call (Test System: Ames Salmonella typhimurium, Strain/Indicator: TA102, Metabolic Activation: None, Method: Preincubation): inactive; negative; mutagenic call (Test System: Ames Salmonella typhimurium, Strain/Indicator: TA102, Metabolic Activation: Rat, liver, S-9, Aroclor 1254, Method: Preincubation): inactive; negative; mutagenic call [5]: inactive; negative; mutagenic call (Test System: MOUSE LYMPHOMA, Strain/Indicator: L5178Y (TK+/TK-), Metabolic Activation: RAT, LIVER, S-9, Method: SUSPENSION/PLATE): inactive; negative

**Q.** `CCn1cc(C(=O)O)c(=O)c2cc3c(cc21)OCO3` was tested. Which mutagenic call (Test System: AMES SALMONELLA TYPHIMURIUM, Strain/Indicator: TA102, Metabolic Activation: NONE, Method: STANDARD PLATE) did it give?
**A.** The mutagenic call was “active; positive”.

**Q.** What about the mutagenic call (Test System: AMES SALMONELLA TYPHIMURIUM, Strain/Indicator: TA2638, Metabolic Activation: NONE, Method: STANDARD PLATE) of the same compound?
**A.** The mutagenic call was “active; positive”.

**Q.** What about the mutagenic call (Test System: E. COLI, Strain/Indicator: WP2 (PKM101), Metabolic Activation: NONE, Method: STANDARD PLATE) of the same compound?
**A.** Its mutagenic call is “active; positive”.

**Q.** And the mutagenic call (Test System: E. COLI, Strain/Indicator: WP2 UVRA (PKM101), Metabolic Activation: NONE, Method: STANDARD PLATE)?
**A.** The mutagenic call was “active; positive”.
